Laboratory results reported in patent US9352013B2, “Uses of bremelanotide in therapy for female sexual dysfunction” (Palatin Technologies, Inc., priority 2012, dated 2016).
Marks after values point to notes of the source that are not given here.

Test: Example 1: ambulatory blood pressure monitoring
Format: in vivo, human
Conditions: for Pulse: treatment group difference (from placebo) in mean change from single-blind placebo: in bpm (unit assumed); for DBP: treatment group difference (from placebo) in mean change from single-blind placebo / SBP: treatment group difference (from placebo) in mean change from single-blind placebo: in mmHg (unit assumed); for HR-BP Product: treatment group difference (from placebo) in mean change from single-blind placebo: in mmHg·bpm (unit assumed)
Procedure: Ambulatory blood pressure monitoring was conducted following both placebo and randomized treatment group in-clinic administrations. Three periods of ambulatory blood pressure monitoring were included, the first period was from before to 24 hours after a single, in-clinic dose of placebo (to establish a baseline); the second and third periods occurred from before to 24 hours after each of 2 single, in-clinic doses of double-blind treatment, administered within 14 days of each other. Blood samples for pharmacokinetic analysis were collected before and at 0.5, 1.0, and 2.0 hours after each in-clinic bremelanotide single-dose treatment (double-blind only), to permit analysis of concentration-response relationships.
Mean changes in blood pressure were characterized in all subjects based on sequential supervised dosing of single-blind subcutaneous placebo and two doses of randomized study drug. The primary analysis for mean changes was the difference between treatment groups in the change from single-blind placebo to randomized drug (Visit 2 vs. Visits 5/7). There were between 86 to 100 subjects in each dose group.
Although there were an increased number of outliers for maximal changes from baseline in systolic blood pressure in drug-treated patients, the duration of these events was quite limited. The interrogation interval during ambulatory blood pressure monitoring assessments of 15 minutes allowed definition of the maximal duration of such excursions. […] The clinical significance of such changes, if any, is small.

[1] = 0.75 mg SC, interval 0-24 h, V5
[2] = 0.75 mg SC, interval 0-24 h, V7
[3] = 0.75 mg SC, interval 8-24 h, V5
[4] = 0.75 mg SC, interval 8-24 h, V7
[5] = 1.25 mg SC, interval 0-24 h, V5
[6] = 1.25 mg SC, interval 0-24 h, V7

CCCC[C@H](NC(C)=O)C(=O)N[C@H]1CC(=O)NCCCC[C@@H](C(=O)O)NC(=O)[C@H](Cc2c[nH]c3ccccc23)NC(=O)[C@H](CCCNC(=N)N)NC(=O)[C@@H](Cc2ccccc2)NC(=O)[C@H](Cc2c[nH]cn2)NC1=O [bremelanotide, Ac-Nle-cyclo(-Asp-His-D-Phe-Arg-Trp-Lys)-OH]
Systolic blood pressure shifts: ΔSBP >10 mmHg, Duration >30 minutes (0.75 mg SC): 1
Systolic blood pressure shifts: ΔSBP >15 mmHg, Duration >30 minutes (0.75 mg SC): 0
Pulse: treatment group difference (from placebo) in mean change from single-blind placebo (0.75 mg SC, interval 0-4 h, V5): −5.2*
DBP: treatment group difference (from placebo) in mean change from single-blind placebo (0.75 mg SC, interval 0-4 h, V5): 1.5
SBP: treatment group difference (from placebo) in mean change from single-blind placebo (0.75 mg SC, interval 0-4 h, V5): 1.8
HR-BP Product: treatment group difference (from placebo) in mean change from single-blind placebo (0.75 mg SC, interval 0-4 h, V5): −492.8*
Pulse: treatment group difference (from placebo) in mean change from single-blind placebo (0.75 mg SC, interval 0-4 h, V7): −4.8*
DBP: treatment group difference (from placebo) in mean change from single-blind placebo (0.75 mg SC, interval 0-4 h, V7): 0.6
SBP: treatment group difference (from placebo) in mean change from single-blind placebo (0.75 mg SC, interval 0-4 h, V7): 1.1
HR-BP Product: treatment group difference (from placebo) in mean change from single-blind placebo (0.75 mg SC, interval 0-4 h, V7): −491.9*
Pulse: treatment group difference (from placebo) in mean change from single-blind placebo [1]: −2.2*
DBP: treatment group difference (from placebo) in mean change from single-blind placebo [1]: 1.1*
SBP: treatment group difference (from placebo) in mean change from single-blind placebo [1]: 1.1
HR-BP Product: treatment group difference (from placebo) in mean change from single-blind placebo [1]: −187.7
Pulse: treatment group difference (from placebo) in mean change from single-blind placebo [2]: −1.6
DBP: treatment group difference (from placebo) in mean change from single-blind placebo [2]: 1.3*
SBP: treatment group difference (from placebo) in mean change from single-blind placebo [2]: 1.5
HR-BP Product: treatment group difference (from placebo) in mean change from single-blind placebo [2]: −82.3
Pulse: treatment group difference (from placebo) in mean change from single-blind placebo (0.75 mg SC, interval 4-8 h, V5): −6.2*
DBP: treatment group difference (from placebo) in mean change from single-blind placebo (0.75 mg SC, interval 4-8 h, V5): 1.3
SBP: treatment group difference (from placebo) in mean change from single-blind placebo (0.75 mg SC, interval 4-8 h, V5): 0.9
HR-BP Product: treatment group difference (from placebo) in mean change from single-blind placebo (0.75 mg SC, interval 4-8 h, V5): −676.5*
Pulse: treatment group difference (from placebo) in mean change from single-blind placebo (0.75 mg SC, interval 4-8 h, V7): −5.5*
DBP: treatment group difference (from placebo) in mean change from single-blind placebo (0.75 mg SC, interval 4-8 h, V7): 1.7
SBP: treatment group difference (from placebo) in mean change from single-blind placebo (0.75 mg SC, interval 4-8 h, V7): 1.6
HR-BP Product: treatment group difference (from placebo) in mean change from single-blind placebo (0.75 mg SC, interval 4-8 h, V7): −503.3*
Pulse: treatment group difference (from placebo) in mean change from single-blind placebo [3]: −0.4
DBP: treatment group difference (from placebo) in mean change from single-blind placebo [3]: 1.0
SBP: treatment group difference (from placebo) in mean change from single-blind placebo [3]: 0.9
HR-BP Product: treatment group difference (from placebo) in mean change from single-blind placebo [3]: 5.2
Pulse: treatment group difference (from placebo) in mean change from single-blind placebo [4]: 0.1
DBP: treatment group difference (from placebo) in mean change from single-blind placebo [4]: 1.3*
SBP: treatment group difference (from placebo) in mean change from single-blind placebo [4]: 1.6
HR-BP Product: treatment group difference (from placebo) in mean change from single-blind placebo [4]: 114.9
Systolic blood pressure shifts: ΔSBP >10 mmHg, Duration >30 minutes (1.25 mg SC): 2
Systolic blood pressure shifts: ΔSBP >15 mmHg, Duration >30 minutes (1.25 mg SC): 0
Pulse: treatment group difference (from placebo) in mean change from single-blind placebo (1.25 mg SC, interval 0-4 h, V5): −5.2*
DBP: treatment group difference (from placebo) in mean change from single-blind placebo (1.25 mg SC, interval 0-4 h, V5): 3.0*
SBP: treatment group difference (from placebo) in mean change from single-blind placebo (1.25 mg SC, interval 0-4 h, V5): 2.4*
HR-BP Product: treatment group difference (from placebo) in mean change from single-blind placebo (1.25 mg SC, interval 0-4 h, V5): −436.4*
Pulse: treatment group difference (from placebo) in mean change from single-blind placebo (1.25 mg SC, interval 0-4 h, V7): −6.1*
DBP: treatment group difference (from placebo) in mean change from single-blind placebo (1.25 mg SC, interval 0-4 h, V7): 2.2*
SBP: treatment group difference (from placebo) in mean change from single-blind placebo (1.25 mg SC, interval 0-4 h, V7): 2.1*
HR-BP Product: treatment group difference (from placebo) in mean change from single-blind placebo (1.25 mg SC, interval 0-4 h, V7): −583.3*
Pulse: treatment group difference (from placebo) in mean change from single-blind placebo [5]: −2.9*
DBP: treatment group difference (from placebo) in mean change from single-blind placebo [5]: 1.9*
SBP: treatment group difference (from placebo) in mean change from single-blind placebo [5]: 1.1
HR-BP Product: treatment group difference (from placebo) in mean change from single-blind placebo [5]: −265.9
Pulse: treatment group difference (from placebo) in mean change from single-blind placebo [6]: −2.6*
DBP: treatment group difference (from placebo) in mean change from single-blind placebo [6]: 1.7*
SBP: treatment group difference (from placebo) in mean change from single-blind placebo [6]: 1.6*
HR-BP Product: treatment group difference (from placebo) in mean change from single-blind placebo [6]: −206.5
Pulse: treatment group difference (from placebo) in mean change from single-blind placebo (1.25 mg SC, interval 4-8 h, V5): −6.1*
DBP: treatment group difference (from placebo) in mean change from single-blind placebo (1.25 mg SC, interval 4-8 h, V5): 2.2*
